Laboratory results from patent US11045561B2, “Rotaxane-type probe for molecular imaging” (Rhode Island Council on Postsecondary Education, priority 2017, dated 2021).

What was measured:
[1] = HyperCEST detection by hyperpolarized 129Xe NMR (fritted phantom, 3T clinical scanner); conditions: 10 mM in water; saturation pulse at about +128 ppm; 3T scanner
Protocol: FIGS. 7A and 7B show HyperCEST data for rotaxane-type biosensors: (FIG. 7A) cucurbiturils and pillararene-based; (FIG. 7B) cycodextrin-based. [Note: ^a Samples were dissolved in water (2 mL, 10 mM), and 1D ^129Xe spectrum were initially recorded and then a series of HyperCEST spectra were sequentially recorded using a series of off resonance pulses varying by 5 ppm. ^b Performed in H2O/DMSO. ^c Performed in CHCl3.]
For the HP-Xe studies, we used a custom-built fritted phantom inside of a custom dual tuned ^1H/^129Xe radiofrequency (RF) coil to acquire all free induction decay (FID) spectra (FIG. 6). Rotaxane-type biosensor molecules, dissolved in water and/or DMSO, were placed inside the fritted phantom, and HP ^129Xe was introduced below the fritted phantom that created microbubbles that rose vertically through the sample. A series of saturation pre-pulses at a variety of chemical shift offsets were loaded into the user interface software of the […] Achieva 3T MR scanner. Spectra with different saturation pre-pulses were acquired approximately every six seconds. […]
Nuclear Magnetic Resonance (NMR) HyperCEST Detection. […] The RF pulse length was determined with the use of the Ref B1, a parameter of Philips MR scanners. […] In this study, the B1 field strength was determined by the scanner to be 15.9 μT. […]

[2] = cited from earlier work; for affinity for xenon as observed by 129Xe NMR: aqueous media, room temperature for cyclodextrins

Row | Compound | affinity for xenon as observed by 129Xe NMR [2] | also measured
1 | O=C1N2CN3C(=O)N4CN5C(=O)N6CN7C(=O)N8CN9C(=O)N%10CN%11C(=O)N%12CN1C1C2N2CN%13C(=O)N(CN%14C(=O)N(CN%15C(=O)N(CN%16C(=O)N(CN%17C(=O)N(CN1C2=O)C%12C%11%17)C%10C9%16)C8C7%15)C6C5%14)C4C3%13 (stereo not shown) [CB6, cucurbit[6]uril] | – | HyperCEST depletion (maximum) [1]: 67%
2 | O=C1N2CN3C(=O)N4CN5C(=O)N6CN7C(=O)N8CN9C(=O)N%10CN%11C(=O)N%12CN%13C(=O)N%14CN%15C(=O)N%16CN1C1C2N2CN%17C(=O)N(CN%18C(=O)N(CN%19C(=O)N(CN%20C(=O)N(CN%21C(=O)N(CN%22C(=O)N(CN%23C(=O)N(CN1C2=O)C%16C%15%23)C%14C%13%22)C%12C%11%21)C%10C9%20)C8C7%19)C6C5%18)C4C3%17 (stereo not shown) [CB[8], cucurbit[8]uril] | do not show any affinity for xenon | –
3 | COc1cc2c3cc1OCCOc1cc4c(cc1OC)Cc1cc5c(OC)cc1Cc1cc(c(OC)cc1C4)OCCOc1cc(c(cc1OC)C3)Cc1cc(OC)c(cc1C2)OCCO5 [Cryptophane-A] | – | xenon residence time ([2]; room temperature): 0.5 to 8 ms
4 | OC[C@H]1O[C@@H]2O[C@H]3[C@H](O)[C@@H](O)[C@@H](O[C@H]4[C@H](O)[C@@H](O)[C@@H](O[C@H]5[C@H](O)[C@@H](O)[C@@H](O[C@H]6[C@H](O)[C@@H](O)[C@@H](O[C@H]7[C@H](O)[C@@H](O)[C@@H](O[C@H]1[C@H](O)[C@H]2O)O[C@@H]7CO)O[C@@H]6CO)O[C@@H]5CO)O[C@@H]4CO)O[C@@H]3CO [α-CD, α-cyclodextrin] | either fail to bind xenon in aqueous media, or the reversible binding has too fast of an exchange rate to be detectable | –
5 | OC[C@H]1O[C@@H]2O[C@H]3[C@H](O)[C@@H](O)[C@@H](O[C@H]4[C@H](O)[C@@H](O)[C@@H](O[C@H]5[C@H](O)[C@@H](O)[C@@H](O[C@H]6[C@H](O)[C@@H](O)[C@@H](O[C@H]7[C@H](O)[C@@H](O)[C@@H](O[C@H]8[C@H](O)[C@@H](O)[C@@H](O[C@H]1[C@H](O)[C@H]2O)O[C@@H]8CO)O[C@@H]7CO)O[C@@H]6CO)O[C@@H]5CO)O[C@@H]4CO)O[C@@H]3CO [β-CD, β-cyclodextrin] | either fail to bind xenon in aqueous media, or the reversible binding has too fast of an exchange rate to be detectable | –
6 | OC[C@H]1O[C@@H]2O[C@H]3[C@H](O)[C@@H](O)[C@@H](O[C@H]4[C@H](O)[C@@H](O)[C@@H](O[C@H]5[C@H](O)[C@@H](O)[C@@H](O[C@H]6[C@H](O)[C@@H](O)[C@@H](O[C@H]7[C@H](O)[C@@H](O)[C@@H](O[C@H]8[C@H](O)[C@@H](O)[C@@H](O[C@H]9[C@H](O)[C@@H](O)[C@@H](O[C@H]1[C@H](O)[C@H]2O)O[C@@H]9CO)O[C@@H]8CO)O[C@@H]7CO)O[C@@H]6CO)O[C@@H]5CO)O[C@@H]4CO)O[C@@H]3CO [γ-CD, γ-cyclodextrin] | either fail to bind xenon in aqueous media, or the reversible binding has too fast of an exchange rate to be detectable | –
7 | cucurbit[7]uril [CB[7]] | do not show any affinity for xenon | –
